Measurements from ChEMBL document CHEMBL4834431, “Design of Dimeric Bile Acid Derivatives as Potent and Selective Human NTCP Inhibitors” (J Med Chem, 2021).
pIC50: −log10 of the molar value. Active and inactive are the calls of the source. The rule behind the calls is not given here.

Tests used:
Hepatitis B virus [1] = experiment: Antiviral activity against HBV infected in human HepG2-NTCP cells assessed as reduction in HBeAg secretion incubated for 24 hrs followed replacement with fresh medium and measured at day 5 post infection by ELISA; assay type: functional, organism-based
[2] = target: T1, Hepatic sodium/bile acid cotransporter (Homo sapiens, UniProt Q14973); experiment: Inhibition of human NTCP-mediated [3H]-TCA uptake expressed in human HepG2 cells pretreated for 2 hrs followed by [3H]-TCA addition in absence of FBS; assay type: cell-based
T1 sequence (Q14973 whole entry): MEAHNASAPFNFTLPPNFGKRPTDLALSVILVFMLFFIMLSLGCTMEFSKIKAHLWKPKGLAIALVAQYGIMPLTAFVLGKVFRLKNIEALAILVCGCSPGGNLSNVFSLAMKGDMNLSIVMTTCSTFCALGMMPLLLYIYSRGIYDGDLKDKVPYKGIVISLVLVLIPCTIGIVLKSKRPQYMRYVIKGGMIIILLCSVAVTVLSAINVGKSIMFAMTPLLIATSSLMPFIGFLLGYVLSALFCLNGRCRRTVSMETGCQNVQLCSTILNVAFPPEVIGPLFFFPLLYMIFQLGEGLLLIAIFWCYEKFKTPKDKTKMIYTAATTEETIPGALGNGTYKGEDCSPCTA

[3] = target: T1, Hepatic sodium/bile acid cotransporter; experiment: Inhibition of human NTCP-mediated [3H]-TCA uptake expressed in human HepG2 cells in presence of 50 % FBS; assay type: cell-based
[4] = target: T1, Hepatic sodium/bile acid cotransporter; experiment: Inhibition of human NTCP-mediated [3H]-TCA uptake expressed in human HepG2 cells in presence of 20 % FBS; assay type: cell-based
Hepatitis delta virus = experiment: Antiviral activity against HDV infected in human HepG2-NTCP cells assessed as reduction in intranuclear accumulation of HDV delta antigen at 5 uM incubated for 24 hrs followed by replacement with fresh medium and measured at day 5 post infection by DAPI staining based confocal microscopic analysis (reference value: 12.1 %); assay type: functional; parameters: scale not given: the % may be the effect or the level left
Hepatitis B virus [5] = experiment: Antiviral activity against HBV infected in human HepG2-NTCP cells assessed as reduction in intracellular HBV RNA level at 1 uM by qPCR analysis; assay type: functional, organism-based
Hepatocyte = experiment: Cytotoxicity against primary tupaia hepatocytes expressing NTCP assessed as reduction in cell viability at 100 uM after 48 hrs by Cell-Titer Glo assay; assay type: cell-based; settings: scandentia
Hepatitis B virus [6] = experiment: Antiviral activity against HBV infected in human HepG2-NTCP cells assessed as reduction in HBeAg secretion at 1 uM preincubated with compound followed by viral infection by ELISA; assay type: functional, organism-based
Hepatitis B virus [7] = experiment: Antiviral activity against HBV infected in human HepG2-NTCP cells assessed as reduction in intracellular accumulation of HBsAg at 1 uM by immunostaining based fluorescence microscopic analysis; assay type: functional, organism-based
Hepatitis B virus [8] = experiment: Antiviral activity against HBV infected in human HepG2-NTCP cells assessed as reduction in intracellular accumulation of HBcAg at 1 uM by immunostaining based fluorescence microscopic analysis; assay type: functional, organism-based
Hepatitis B virus [9] = experiment: Antiviral activity against HBV infected in human HepG2-NTCP cells assessed as reduction in HBeAg secretion at 1 uM compound added along with viral infection by ELISA; assay type: functional, organism-based
[10] = target: T1, Hepatic sodium/bile acid cotransporter; experiment: Inhibition of human NTCP-mediated [3H]-TCA uptake expressed in human HepG2 cells; assay type: cell-based; settings: human, hepg2
Hepatitis B virus [11] = experiment: Antiviral activity against HBV infected in human HepG2-NTCP cells assessed as reduction in HBeAg secretion at 111 to 1000 nM incubated for 24 hrs followed by replacement with fresh medium and measured at day 5 post infection by ELISA; assay type: functional, organism-based; settings: dose 111-1000 nM
[12] = target: T1, Hepatic sodium/bile acid cotransporter; experiment: Inhibition of FITC-labeled HBV Pre-S1 polypeptide binding to human NTCP expressed in HepG2 cells after 2 to 3 hrs by confocal microscopic analysis; assay type: cell-based; settings: time 2-3 hrs
HepG2 [13] = experiment: Cytotoxicity against human HepG2 cells expressing NTCP assessed as reduction in cell viability at 10 uM after 48 hrs by alamar blue assay; assay type: cell-based; settings: hepg2, 48 h
HepG2 [14] = experiment: Inhibition of monkey NTCP-mediated [3H]-TCA uptake expressed in human HepG2 cells; assay type: cell-based; settings: Macaca mulatta
[15] = target: T2, Hepatic sodium/bile acid cotransporter (Mus musculus, UniProt O08705); experiment: Inhibition of mouse NTCP-mediated [3H]-TCA uptake expressed in human HepG2 cells; assay type: cell-based
T2 sequence (O08705 whole entry): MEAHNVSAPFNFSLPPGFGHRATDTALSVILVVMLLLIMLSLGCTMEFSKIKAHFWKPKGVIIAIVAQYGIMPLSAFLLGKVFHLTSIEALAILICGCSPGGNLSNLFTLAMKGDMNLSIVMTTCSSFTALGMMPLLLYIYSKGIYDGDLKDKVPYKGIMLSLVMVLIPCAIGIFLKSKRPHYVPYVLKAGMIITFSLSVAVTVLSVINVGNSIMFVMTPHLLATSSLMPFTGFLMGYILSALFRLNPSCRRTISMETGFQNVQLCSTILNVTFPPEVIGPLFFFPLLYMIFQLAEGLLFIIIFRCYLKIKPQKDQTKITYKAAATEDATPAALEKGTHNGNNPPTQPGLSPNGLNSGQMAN

[16] = target: T1, Hepatic sodium/bile acid cotransporter; experiment: Inhibition of human NTCP-mediated NQL-065 uptake expressed in human HepG2 cells incubated for 30 mins; assay type: cell-based; settings: hepg2, 0.5 h
Hepatitis B virus [17] = experiment: Antiviral activity against HBV infected in human HepG2-NTCP cells assessed as reduction in HBeAg secretion at 1 uM pre-infected with virus followed by compound addition by ELISA; assay type: functional, organism-based
HepG2 [18] = experiment: Effect on NTCP surface expression in human HepG2-NTCP cells assessed as reduction in NTCP surface expression level after 2 hrs by immunostaining based assay; assay type: functional, cell-based
[19] = target: T1, Hepatic sodium/bile acid cotransporter; experiment: Inhibition of human NTCP-mediated NQL-064 uptake expressed in human HepG2 cells incubated for 30 mins; assay type: cell-based; settings: hepg2, 0.5 h
[20] = target: T3, Ileal sodium/bile acid cotransporter (Homo sapiens, UniProt Q12908); experiment: Inhibition of human ASBT-mediated [3H]-TCA uptake expressed in human HepG2 cells at 2 uM; assay type: cell-based; settings: hepg2, 2 µM
T3 sequence (Q12908 whole entry): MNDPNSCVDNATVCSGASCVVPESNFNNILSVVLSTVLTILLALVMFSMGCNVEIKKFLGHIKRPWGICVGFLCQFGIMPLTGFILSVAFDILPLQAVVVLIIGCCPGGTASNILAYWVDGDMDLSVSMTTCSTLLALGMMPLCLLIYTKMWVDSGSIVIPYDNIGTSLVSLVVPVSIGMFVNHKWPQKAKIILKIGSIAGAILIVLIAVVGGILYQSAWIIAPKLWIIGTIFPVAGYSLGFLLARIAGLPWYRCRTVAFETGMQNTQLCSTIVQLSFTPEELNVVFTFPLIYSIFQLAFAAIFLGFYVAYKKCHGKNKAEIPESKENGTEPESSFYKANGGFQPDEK

HepG2 [21] = experiment: Inhibition of tree shrew NTCP-mediated [3H]-TCA uptake expressed in human HepG2 cells; assay type: cell-based; settings: Scandentia
Hepatitis B virus [22] = experiment: Antiviral activity against HBV infected in human HepG2-NTCP cells assessed as reduction in HBeAg secretion preincubated for 2 hrs followed by viral infection by ELISA; assay type: functional, organism-based
[23] = target: T1, Hepatic sodium/bile acid cotransporter; experiment: Inhibition of human NTCP-mediated [3H]-TCA uptake expressed in human HepG2 cells at 2 uM; assay type: cell-based; settings: hepg2, 2 µM
[24] = target: T4, Solute carrier organic anion transporter family member 1B1 (Homo sapiens, UniProt Q9Y6L6); experiment: Inhibition of human OATP1B1-mediated [3H]-Estrone sulfate uptake expressed in human HepG2 cells at 2 uM; assay type: cell-based; settings: hepg2, 2 µM
T4 sequence (Q9Y6L6 whole entry): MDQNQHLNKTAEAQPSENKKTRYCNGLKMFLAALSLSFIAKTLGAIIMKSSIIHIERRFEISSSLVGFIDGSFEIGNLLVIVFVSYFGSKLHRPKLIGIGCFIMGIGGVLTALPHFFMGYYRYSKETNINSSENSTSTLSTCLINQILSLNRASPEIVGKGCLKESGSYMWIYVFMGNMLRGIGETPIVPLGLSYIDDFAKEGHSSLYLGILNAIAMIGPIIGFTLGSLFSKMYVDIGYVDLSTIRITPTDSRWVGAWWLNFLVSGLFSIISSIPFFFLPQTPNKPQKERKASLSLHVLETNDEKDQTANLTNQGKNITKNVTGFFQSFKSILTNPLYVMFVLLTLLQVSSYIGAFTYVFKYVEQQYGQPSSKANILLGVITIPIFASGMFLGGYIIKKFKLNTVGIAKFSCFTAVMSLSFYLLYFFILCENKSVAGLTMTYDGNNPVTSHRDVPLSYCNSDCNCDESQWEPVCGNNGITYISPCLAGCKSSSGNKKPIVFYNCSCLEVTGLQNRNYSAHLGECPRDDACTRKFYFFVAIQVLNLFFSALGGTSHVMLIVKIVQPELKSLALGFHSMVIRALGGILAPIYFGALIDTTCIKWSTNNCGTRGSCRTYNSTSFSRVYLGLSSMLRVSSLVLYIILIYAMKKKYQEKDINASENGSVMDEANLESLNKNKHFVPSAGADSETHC

[25] = target: T1, Hepatic sodium/bile acid cotransporter; experiment: Inhibition of human NTCP-mediated [3H]-Estrone sulfate uptake expressed in human HepG2 cells at 2 uM; assay type: cell-based; settings: hepg2, 2 µM

In the case of `C[C@@H]1CCC(=O)NCCNC(=O)CC[C@@H](C)[C@H]2CC[C@H]3[C@@H]4[C@@H](O)C[C@@H]5C[C@@H](CC[C@]5(C)[C@H]4CC[C@]23C)n2cc(nn2)CO[C@@H]2CC[C@@]3(C)[C@@H](C2)C[C@H](O)[C@@H]2[C@@H]3CC[C@]3(C)[C@@H]1CC[C@@H]23`, the pIC50 (Hepatitis B virus [1]) was 7.09 and the pIC50 [2] was 7.43.

For `C[C@@H]1CCC(=O)NC(C(=O)O)CNC(=O)CC[C@@H](C)[C@H]2CC[C@H]3[C@@H]4[C@@H](O)C[C@@H]5C[C@@H](CC[C@]5(C)[C@H]4CC[C@]23C)n2cc(nn2)CO[C@@H]2CC[C@@]3(C)[C@@H](C2)C[C@H](O)[C@@H]2[C@@H]3CC[C@]3(C)[C@@H]1CC[C@@H]23` (stereo not given in full), the pIC50 (Hepatitis B virus [1]) was 7.03, the pIC50 [3] was 6.78 and the pIC50 [4] was 6.96. It also gave a pIC50 [2] of 7.75.

In the case of `C[C@H](CCCN(CC[C@@H](C)[C@H]1CC[C@H]2[C@@H]3[C@@H](O)C[C@@H]4C[C@H](O)CC[C@]4(C)[C@H]3CC[C@]12C)CCS(=O)(=O)O)[C@H]1CC[C@H]2[C@@H]3[C@@H](O)C[C@@H]4C[C@H](O)CC[C@]4(C)[C@H]3CC[C@]12C`, the pIC50 (Hepatitis B virus [1]) was 6.96, the Activity (Hepatitis delta virus) was 4.6% and the Activity (Hepatitis B virus [5]) was “Active”. The Activity (Hepatocyte) was “Non-Toxic”, the Activity (Hepatitis B virus [6]) was “Active” and the Activity (Hepatitis B virus [7]) was “Active”. For the same compound, the Activity (Hepatitis B virus [8]) was “Active”, the Activity (Hepatitis B virus [9]) was “Active” and the “inhibition (INH)” value [10] was “Active”. The Activity (Hepatitis B virus [11]) was “Active”, the “inhibition (INH)” value [12] was “Active” and the Activity (HepG2 [13]) was “Non-Toxic”. The inhibition (HepG2 [14]) was “Active”, the “inhibition (INH)” value [15] was “Active” and the “inhibition (INH)” value [16] was “Active”. For the same compound, the Activity (Hepatitis B virus [17]) was “inactive”, the Activity (HepG2 [18]) was “inactive” and the “inhibition (INH)” value [19] was “Active”. For the same compound, the “inhibition (INH)” value [20] was “Not Active”, the inhibition (HepG2 [21]) was “Active” and the Activity (Hepatitis B virus [22]) was “Active”. For the same compound, the “inhibition (INH)” value [23] was “Active”, the “inhibition (INH)” value [24] was “Not Active” and the “inhibition (INH)” value [25] was “Active”.
